Measurements reported in paper PMC12257413, “Discovery of a Novel sp^3‑Rich M1 Positive Allosteric Modulators (PAMs) Chemotype via Scaffold Hopping” (ACS Medicinal Chemistry Letters, 2025).

Legend:
[1] = Rat in vivo PK (PK/PBL cassette); conditions: for AUC / MRT / half-life / Vd: plasma; for clearance: plasma clearance, read-out: CLp; for Vd: read-out: Vss
Text: 4 Detailed In Vitro and In Vivo Profiles for Selected M1 PAMs ^a | column: Property; 17k; 17g

[2] = Intrinsic clearance in rat hepatic microsomes, predicted hepatic clearance; format: in vitro ADME; conditions: predicted hepatic clearance from rat hepatic microsomes
Experimental: A similar approach was used to determine the degree of brain homogenate binding, which employed the same methodology and procedure with the following modifications: 1) a final compound concentration of 1 μM was used, 2) naïve rat brains were homogenized in DPBS (1:3 composition of brain: DPBS, w/w) using a Mini-Bead Beater™ machine in order to obtain brain homogenate, which was then treated in the same manner as the plasma samples in the previously described plasma protein binding assay. […]
same manner as the plasma samples in the previously described plasma protein binding assay. Fraction unbound for both plasma and brain samples was determined using Equation 4.
Equation 4 Determination of fraction unbound in plasma.
The diluted fraction unbound (fu2) in brain was calculated in the same manner by using brain homogenate rather than plasma. Undiluted fraction unbound for the brain was calculated using Equation 5 […]
Equation 5 Determination of fraction unbound in brain. […]
Human or rat hepatic microsomes (0.5 mg/mL) and 1 µM test compound were incubated in 100 mM potassium phosphate pH 7.4 buffer with 3 mM MgCl 2 at 37 °C with constant shaking. […] The in vitro half-life (1/2, min, Eq. 1), intrinsic clearance (CL int, mL/min/kg, Eq. 2), and subsequent predicted hepatic clearance (CLhep, mL/min/kg, Eq. 3) was determined employing the following equations: […]

[3] = Plasma protein binding by equilibrium dialysis, rat plasma; format: in vitro ADME; conditions: fraction unbound in rat plasma
Experimental: for 2 seconds (excitation, 480 nm; emission, 530 nm), first add occurred by adding 20 µL of test compound to the cells, and the response was measured for 140 seconds. This is followed by second add; 10 µL (5X) of an EC20 concentration of ACh agonist was added to the cells, and the response of the cells was measured for 125 seconds. Immediately, the third add occurred by adding 12 ul assay buffer or 5X of an EC max concentration of ACh and the response of the cells was measured for 90 seconds. Assay buffer was added to the wells that incubated with compounds followed by EC20 concentration of ACh. […] Calcium fluorescence was recorded as fold over basal fluorescence and raw data were normalized to the maximal response to ACh agonist. Potency (EC50) and maximum response (% ACh Max) for compounds was determined using a four -parameter logist ical equation using GraphPad Prism (La Jolla, CA) or the Dotmatics software platform ( Woburn, MA) : […]
The protein binding of each compound was determined in plasma via equilibrium dialysis employing rapid equilibrium dialysis (RED) plates (ThermoFisher Scientific, Rochester, NY). […]
same manner as the plasma samples in the previously described plasma protein binding assay. Fraction unbound for both plasma and brain samples was determined using Equation 4. […]

| Structure (SMILES) | AUC [1] | MRT [1] | half-life [1] | clearance [1] | Vd [1] | Rat CLHEP [2] | Rat fuplasma [3] |
| --- | --- | --- | --- | --- | --- | --- | --- |
| Cn1cc(-c2ccc(Cc3cc(C(=O)N[C@H]4CCOC[C@@H]4O)nn3C3CCCC3)cc2)cn1 [17g] | 160 ng·h/mL | 76.8 min | 72.6 min | 20.8 mL/min/kg | 1.59 L/kg | 32.8 mL/min/kg | 0.08 |
| Cn1cc(-c2ccc(Cc3cc(C(=O)N[C@H]4CCCC[C@@H]4O)nn3C3CCCC3)cc2)cn1 [17k] | 74.4 ng·h/mL | 39 min | 37.8 min | 56 mL/min/kg | 2.2 L/kg | 49.5 mL/min/kg | 0.03 |
